From article PMC9181915, “Synthesis and Anti-Neuroinflammatory Activity of 1,7-diphenyl-1,4-heptadien-3-ones in LPS-Stimulated BV2 Microglia Via Inhibiting NF-κB/MAPK Signaling Pathways” (Molecules, 2022) come the findings set out here.

The nature of data set [1]: MTT cell viability assay in BV2 microglia cells. It counts as cell-based. The note with it: mouse, mean ± SD, n = 3. Here is the method: (§1) The BV2 microglial cells were purchased from the China Center for Type Culture Collection, CCTCC (Wuhan, Hubei). BV2 microglia cells were incubated in DMEM media supplemented with 10% (v/v) FBS, 100 U/mL penicillin G and […] streptomycin at 37 °C with 5% CO2.
Cell viability assays were evaluated using a 3-(4,5-dimethylthiazol-2-yl)-2,5-diphenyltetrazolium bromide (MTT) assay. BV2 microglia cells were seeded in 96-well plates at a density of 1.6 × 10^5 cells/well in complete medium and incubated for 24 h. Then, the culture medium was sucked and discarded, and sterile PBS was added for washing, and then PBS was removed. Then the cells were treated with different concentrations of target compounds for 24 h. An amount equal to 100 μL of MTT was added to each well and the cells were further incubated for 2–4 h. An amount equal to 150 μL of DMSO was added into a 96-well plate and vibrated with micro-oscillator for 10 min. The optical density (A) was measured at […] on a microplate reader. The inhibitory rate of the various concentrations of agents in BV2 cells was calculated using the following formula:Cell viability (%) = [A492 (sample) − A492 (blank)]/[A492 (control) − A492 (blank)] × 100%
(In general: Tetrazolium dyes change colour on reduction, which living cells bring about.)

Data set [2] relates to LPS-induced NO release in BV2 cells. Put plainly: Inhibition of LPS-induced NO release in BV2 cells. Format: cell-based. The note with it: Mus musculus, BV-2; for inhibition at 1 µM / inhibition at 3 µM: pretreated 1 h, then LPS 1 μg/mL for 24 h, BV2 cells. The method, then: as §1
Nitrite, a stable product of nitric oxide, was used to assess NO production. To study the effects of the compounds on NO production, BV2 microglia cells in the logarithmic phase were plated at 1 × 10^5 cells/well in a 24-well microplate and incubated in DMEM medium (10% FBS) overnight. The cells were pretreated with various concentrations of the test compounds for 1 h and further co-cultured with 1 μg/mL LPS and 5% CO2 for 24 h in a 37 °C incubator; then, the supernatant was taken and stored at −20 °C for NO detection. The target compound and LPS were configured with DMEM medium (2% FBS). The determination of NO was carried out according to the instructions. Unpretreated and unstimulated BV2 microglia cells were conducted as the blank control group. The absorbance value was determined at 540 nm, and the corresponding NO content was calculated by using the standard curve. The NO inhibitory rate of the various concentrations of agents in BV2 cells was calculated as per the following formula:Inhibition rate (%) = (LPS(NO concentration) − sample(NO concentration))/(LPS(NO concentration) − negative control(NO concentration)) × 100%.

Regarding `O=C(/C=C/CCc1ccc(O)cc1)/C=C/c1ccc(O)cc1` [CU-1, (1E,4E)-1,7-bis(4-hydroxyphenyl)-1,4-heptadien-3-one], in data set [1], the viability at 24 h, 1 µM came to 88.07 ± 0.19%; the viability at 24 h, 3 µM amounted to 49.84 ± 0.27%; the viability at 24 h, 10 µM was 23.7 ± 0.38%. The inhibition at 1 µM in data set [2] amounted to 0%.
In the case of `COc1ccc(/C=C/C(=O)/C=C/CCc2ccc(OC)c(OC)c2)cc1OC` [CU-2, (1E,4E)-1,7-bis(3,4-dimethoxyphenyl)-1,4-heptadien-3-one], the melting point lay within 97 to 99 °C. Moreover, in data set [1], the viability at 24 h, 1 µM worked out at 76.92 ± 0.19%; the viability at 24 h, 3 µM came to 49.2 ± 0.92%; the viability at 24 h, 10 µM turned out to be 10.6 ± 1.13%. Moreover, the inhibition at 1 µM in data set [2] amounted to 0%.
For `COc1ccc(/C=C/C(=O)/C=C/CCc2ccccc2)cc1` [CU-3, (1E,4E)-7-phenyl-1-(4-methoxyphenyl)-1,4-heptadien-3-one], the melting point was 48 to 50 °C. In data set [1], the viability at 24 h, 1 µM is 106.7 ± 0.14%; the viability at 24 h, 3 µM came out at 101.55 ± 0.01%; the viability at 24 h, 10 µM was 98.5 ± 0.01%. Also, the inhibition at 3 µM in data set [2] amounted to 35.2%.
`COc1cc(/C=C/C(=O)/C=C/CCc2ccccc2)cc(OC)c1OC` [CU-4, (1E,4E)-7-phenyl-1-(3,4,5-trimethoxyphenyl)-1,4-heptadien-3-one] returned a melting point of 95 to 97 °C. Also, in data set [1], the viability at 24 h, 1 µM was 107.23 ± 0.09%; the viability at 24 h, 3 µM is 73.92 ± 0.3%; the viability at 24 h, 10 µM came to 16.6 ± 0.45%. Also, the inhibition at 1 µM in data set [2] is 3.1%.
The matching figures for `O=C(/C=C/CCc1ccccc1)/C=C/c1ccccc1O` [CU-5, (1E,4E)-1-(2-hydroxyphenyl)-7-phenyl-1,4-heptadien-3-one]: 134 to 136 °C, 95.68 ± 0.11%, 77.39 ± 0.3%, 15.9 ± 0.61% and 0%.
Regarding `O=C(/C=C/CCc1ccccc1)/C=C/c1cccc(O)c1` [CU-6, (1E,4E)-1-(3-hydroxyphenyl)-7-phenyl-1,4-heptadien-3-one], the melting point was 94 to 96 °C. In data set [1], the viability at 24 h, 1 µM worked out at 106.85 ± 0.1%; the viability at 24 h, 3 µM was found to be 100.07 ± 0.01%; the viability at 24 h, 10 µM is 101.56 ± 0.03%. Besides, in data set [2], the inhibition at 3 µM stood at 22.1%.
`O=C(/C=C/CCc1ccccc1)/C=C/c1ccc(O)cc1` [CU-7, (1E,4E)-1-(4-hydroxyphenyl)-7-phenyl-1,4-heptadien-3-one] gave a melting point of 121 to 123 °C. Also, in data set [1], the viability at 24 h, 1 µM is 93.46 ± 0.35%; the viability at 24 h, 3 µM is 52.8 ± 0.5%; the viability at 24 h, 10 µM was 14.3 ± 0.7%. Moreover, the inhibition at 1 µM in data set [2] is 0%.
`COc1ccc(/C=C/C(=O)/C=C/CCc2ccccc2)cc1O` [CU-8, (1E,4E)-1-(3-hydroxy-4-methoxyphenyl)-7-phenyl-1,4-heptadien-3-one] yielded a melting point of 72 to 74 °C. Further, in data set [1], the viability at 24 h, 1 µM came out at 101.18 ± 0.04%; the viability at 24 h, 3 µM came out at 97.4 ± 0.07%; the viability at 24 h, 10 µM was 18.2 ± 0.86%. In data set [2], the inhibition at 3 µM was determined as 18.8%.
`COc1cc(/C=C/C(=O)/C=C/CCc2ccccc2)ccc1O` [CU-9, (1E,4E)-1-(4-hydroxy-3-methoxyphenyl)-7-phenyl-1,4-heptadien-3-one] returned a melting point of 114 to 116 °C. In data set [1], the viability at 24 h, 1 µM was found to be 99.38 ± 0.01%; the viability at 24 h, 3 µM came to 94.65 ± 0.07%; the viability at 24 h, 10 µM is 14.8 ± 0.75%. Moreover, the inhibition at 3 µM in data set [2] turned out to be 7.52%.
The compound `O=C(/C=C/CCc1ccccc1)/C=C/c1ccc(Cl)cc1` [CU-10, (1E,4E)-1-(4-chlorophenyl)-7-phenyl-1,4-heptadien-3-one] registered a melting point of 70 to 72 °C. In addition, in data set [1], the viability at 24 h, 1 µM is 95.54 ± 0.03%; the viability at 24 h, 3 µM worked out at 95.27 ± 0.16%; the viability at 24 h, 10 µM came out at 48.7 ± 2.93%. Also, the inhibition at 3 µM in data set [2] came to 0%.
`Cc1ccc(CC/C=C/C(=O)/C=C/c2ccc(O)cc2)cc1` [CU-11, (1E,4E)-1-(4-hydroxyphenyl)-7-(p-tolyl)-1,4-heptadien-3-one] showed a melting point of 132 to 134 °C. For the same compound, in data set [1], the viability at 24 h, 1 µM turned out to be 99.17 ± 0.01%; the viability at 24 h, 3 µM worked out at 91.61 ± 0.09%; the viability at 24 h, 10 µM came out at 11.2 ± 0.56%. The inhibition at 3 µM in data set [2] was determined as 0%.
As to `COc1cc(CC/C=C/C(=O)/C=C/c2ccc(O)cc2)ccc1O` [CU-12, (1E,4E)-7-(4-hydroxy-3-methoxyphenyl)-1-(4-hydroxyphenyl)-1,4-heptadien-3-one], in data set [1], the viability at 24 h, 1 µM was determined as 92.03 ± 0.29%; the viability at 24 h, 3 µM came out at 75.55 ± 0.17%; the viability at 24 h, 10 µM amounted to 12.7 ± 0.59%. In addition, the inhibition at 1 µM in data set [2] was found to be 0%.
On to `COc1ccc(CC/C=C/C(=O)/C=C/c2ccc(O)cc2)cc1` [CU-13, (1E,4E)-1-(4-hydroxyphenyl)-7-(4-methoxyphenyl)-1,4-heptadien-3-one], for which the melting point is 136 to 138 °C. In data set [1], the viability at 24 h, 1 µM was found to be 109.5 ± 0.27%; the viability at 24 h, 3 µM was found to be 91.4 ± 0.32%; the viability at 24 h, 10 µM came to 28.5 ± 1.3%. Also, the inhibition at 3 µM in data set [2] is 0%.
As for `COc1ccc(/C=C/C(=O)/C=C/CCc2ccc(OC)cc2)cc1` [CU-14, (1E,4E)-1,7-bis(4-methoxyphenyl)-1,4-heptadien-3-one], the melting point lay in the range of 65 to 67 °C. Also, in data set [1], the viability at 24 h, 1 µM was determined as 97.96 ± 0.01%; the viability at 24 h, 3 µM came out at 97.44 ± 0.03%; the viability at 24 h, 10 µM came out at 18.06 ± 0.1%. Besides, in data set [2], the inhibition at 3 µM came to 49.7%. Moreover, the IC50 in data set [2] (BV2 cells, 0.3, 1.0, 3.0 μM, LPS 1 μg/mL 24 h, mean ± SD, n = 3, read-out: IC50 to inhibit LPS-induced NO release) came to 2.43 ± 0.45 µM.
Take `O=C(/C=C/CCc1ccccc1)/C=C/c1ccccc1` [CU-15, (1E,4E)-1,7-diphenyl-1,4-heptadien-3-one]: in data set [1], the viability at 24 h, 1 µM amounted to 104.99 ± 0.03%; the viability at 24 h, 3 µM is 103.11 ± 0.03%; the viability at 24 h, 10 µM is 84.19 ± 0.21%. For the same compound, in data set [2], the inhibition at 3 µM is 13.7%.
Take `Cc1ccc(/C=C/C(=O)/C=C/CCc2ccccc2)cc1` [CU-16, (1E,4E)-7-phenyl-1-(p-tolyl)-1,4-heptadien-3-one]: the melting point is 46 to 48 °C. Further, in data set [1], the viability at 24 h, 1 µM is 95 ± 0.08%; the viability at 24 h, 3 µM was found to be 88.57 ± 0.28%; the viability at 24 h, 10 µM turned out to be 33.3 ± 1.2%. Further, in data set [2], the inhibition at 3 µM was found to be 15.4%.
Take `COc1cc(/C=C/C(=O)/C=C/CCc2ccc(O)cc2)ccc1O` [CU-17, (1E,4E)-1-(4-hydroxy-3-methoxyphenyl)-7-(4-hydroxyphenyl)-1,4-heptadien-3-one]: the melting point was 141 to 143 °C. Also, in data set [1], the viability at 24 h, 1 µM stood at 99.36 ± 0.01%; the viability at 24 h, 3 µM turned out to be 80.72 ± 0.2%; the viability at 24 h, 10 µM came to 32.4 ± 0.67%. Also, the inhibition at 1 µM in data set [2] came to 0%.
For the compound `COc1ccc(CC/C=C/C(=O)/C=C/c2ccccc2)cc1OC` [CU-23, (1E,4E)-7-(3,4-dimethoxyphenyl)-1-phenyl-1,4-heptadien-3-one], in data set [1], the viability at 24 h, 1 µM came to 106.5 ± 0.14%; the viability at 24 h, 3 µM came to 100.85 ± 0.01%; the viability at 24 h, 10 µM came to 12.3 ± 0.84%. Besides, the inhibition at 3 µM in data set [2] was found to be 31.4%.
The matching figures for `COc1cc(CC/C=C/C(=O)/C=C/c2ccccc2)cc(OC)c1OC` [CU-27, (1E,4E)-1-phenyl-7-(3,4,5-trimethoxyphenyl)-1,4-heptadien-3-one]: 116.1 ± 0.44%, 101.31 ± 0.03%, 38.9 ± 1.19% and 7.02%.

As usually defined, the viability is a read-out of living cells in per cent, often relative to untreated cells. As usually defined, the inhibition is the change of the read-out against control, counted positive when it falls. The melting point is the temperature of the solid-liquid transition. A word on the IC50: it is the concentration that gives 50% inhibition.
